Experimental data taken from PubChem BioAssay AID330 (DTP/NCI, 2004).
Values joined by “and” are separate entries in the source; they are usually repeats but may differ in a detail not shown here. Identical values can stand only once. Toxic doses and inconclusive results are not listed. Peptide text beside a SMILES is read from it.

Tested on: P388 leukemia ip, CD2F1 mice, survival T/C
Assay: NCI In Vivo Anticancer Drug Screen. Data for tumor model P388 Leukemia (intraperitoneal) in CD2F1 (CDF1) mice
Conditions: endpoint: median survival time, higher = longer survival
Outline: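 Mice carrying the transplanted tumor received test compound or vehicle. Survival was recorded in each group, and the value is the treated-group measurement divided by that of the vehicle-treated control group.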

[1] = dose: 100.0 mg/kg/injection, schedule: Q01DX009 (ip), vehicle: saline with Tween-80
[2] = dose: 200.0 mg/kg/injection, schedule: Q01DX009 (ip), vehicle: saline with Tween-80
[3] = dose: 6.25 mg/kg/injection, schedule: Q01DX009 (ip), vehicle: water
[4] = dose: 50.0 mg/kg/injection, schedule: Q01DX009 (ip), vehicle: water
[5] = dose: 100.0 mg/kg/injection, schedule: Q01DX009 (ip), vehicle: water
[6] = dose: 50.0 mg/kg/injection, schedule: Q01DX009 (ip), vehicle: saline with Tween-80
[7] = dose: 50.0 mg/kg/injection, schedule: Q01DX009 (ip), vehicle: Klucel (hydroxypropylcellulose) (HPC)
[8] = dose: 100.0 mg/kg/injection, schedule: Q01DX009 (ip), vehicle: Klucel (hydroxypropylcellulose) (HPC)
[9] = dose: 200.0 mg/kg/injection, schedule: Q01DX009 (ip), vehicle: Klucel (hydroxypropylcellulose) (HPC)
[10] = dose: 50.0 mg/kg/injection, schedule: Q01DX005 (ip), vehicle: saline with Tween-80
[11] = dose: 100.0 mg/kg/injection, schedule: Q01DX005 (ip), vehicle: saline with Tween-80
[12] = dose: 50.0 mg/kg/injection, schedule: Q01DX009 (ip), vehicle: saline
[13] = dose: 60.0 mg/kg/injection, schedule: Q01DX005 (ip), vehicle: saline with Tween-80
[14] = dose: 120.0 mg/kg/injection, schedule: Q01DX005 (ip), vehicle: saline with Tween-80
[15] = dose: 60.0 mg/kg/injection, schedule: Q01DX005 (ip), vehicle: Klucel (hydroxypropylcellulose) (HPC)
[16] = dose: 120.0 mg/kg/injection, schedule: Q01DX005 (ip), vehicle: Klucel (hydroxypropylcellulose) (HPC)
[17] = dose: 240.0 mg/kg/injection, schedule: Q01DX005 (ip), vehicle: Klucel (hydroxypropylcellulose) (HPC)

Question: Which T/C (dose: 12.5 mg/kg/injection, schedule: Q04DX003 (ip), vehicle: saline with Tween-80) does the source give for `CC(CNC(=O)CCOS(C)(=O)=O)NC(=O)CCOS(C)(=O)=O` (stereo not drawn) here?
Answer: 100 % of control

Question: What about the T/C (dose: 50.0 mg/kg/injection, schedule: Q04DX003 (ip), vehicle: saline with Tween-80) of the same molecule?
Answer: 154 % of control

Question: And the T/C [1]?
Answer: 154 % of control

Question: What about the T/C (dose: 100.0 mg/kg/injection, schedule: Q04DX003 (ip), vehicle: saline with Tween-80) of the same molecule?
Answer: 150 % of control

Question: And the T/C [2]?
Answer: 177 % of control

Question: And the T/C (dose: 200.0 mg/kg/injection, schedule: Q04DX003 (ip), vehicle: saline with Tween-80)?
Answer: 175 % of control

Question: And the T/C (dose: 400.0 mg/kg/injection, schedule: Q01DX009 (ip), vehicle: saline with Tween-80)?
Answer: 90 % of control

Question: And the T/C (dose: 400.0 mg/kg/injection, schedule: Q04DX003 (ip), vehicle: saline with Tween-80)?
Answer: 241 % of control

Question: How did the T/C (dose: 3.13 mg/kg/injection, schedule: Q01DX009 (ip), vehicle: water) turn out when `COc1cccc2c1C(=O)c1c(O)c3c(c(O)c1C2=O)C[C@@](O)(C(=O)O)C[C@@H]3OC1CC(N)C(O)C(C)O1` (stereo partly drawn) was run?
Answer: 88 % of control

Question: And the T/C [3]?
Answer: 123 % of control

Question: What about the T/C (dose: 18.75 mg/kg/injection, schedule: Q01DX001 (ip), vehicle: water) of the same molecule?
Answer: 114 % of control

Question: And the T/C (dose: 37.5 mg/kg/injection, schedule: Q01DX001 (ip), vehicle: water)?
Answer: 121 % of control

Question: What about the T/C [4] of the same molecule?
Answer: 155 % of control

Question: What about the T/C (dose: 75.0 mg/kg/injection, schedule: Q01DX001 (ip), vehicle: water) of the same molecule?
Answer: 114 % of control

Question: And the T/C [5]?
Answer: 158 % of control

Question: And the T/C (dose: 150.0 mg/kg/injection, schedule: Q01DX001 (ip), vehicle: water)?
Answer: 122 % of control

Question: And the T/C (dose: 300.0 mg/kg/injection, schedule: Q01DX001 (ip), vehicle: water)?
Answer: 123 % of control

Question: How did the T/C [6] turn out when `CCCCSc1ccc(N=[N+]([O-])c2ccc(SCCCC)nc2SCCCC)c(SCCCC)n1` was run?
Answer: 94 % of control

Question: And the T/C [1]?
Answer: 90 % of control

Question: And the T/C [2]?
Answer: 88 % of control

Question: Which results are given for `Clc1ccc(-c2nc(-c3cc4cc(Cl)ccc4o3)cs2)cc1`?
Answer: T/C [7]: 100 % of control; T/C [8]: 100 % of control; T/C [9]: 104 % of control

Question: Which T/C [3] does the source give for `COc1cc2cnccc2cc1O` here?
Answer: 92 % of control

Question: What about the T/C (dose: 12.5 mg/kg/injection, schedule: Q01DX009 (ip), vehicle: water) of the same molecule?
Answer: 103 % of control

Question: And the T/C (dose: 25.0 mg/kg/injection, schedule: Q01DX009 (ip), vehicle: water)?
Answer: 98 % of control

Question: And the T/C [4]?
Answer: 95 % of control

Question: And the T/C [5]?
Answer: 110 % of control

Question: `S=C(SSC(=S)Sc1ccccc1)Sc1ccccc1` was tested. Which T/C (dose: 100.0 mg/kg/injection, schedule: Q04DX002 (ip), vehicle: Klucel (hydroxypropylcellulose) (HPC)) did it give?
Answer: 112 % of control

Question: And the T/C (dose: 200.0 mg/kg/injection, schedule: Q04DX002 (ip), vehicle: Klucel (hydroxypropylcellulose) (HPC))?
Answer: 107 % of control

Question: What about the T/C (dose: 400.0 mg/kg/injection, schedule: Q04DX002 (ip), vehicle: Klucel (hydroxypropylcellulose) (HPC)) of the same molecule?
Answer: 102 % of control

Question: What does the source list for `COc1ccc(CCN(C=O)c2ccc(OC)c(OC)c2)cc1OC`?
Answer: T/C (dose: 25.0 mg/kg/injection, schedule: Q01DX009 (ip), vehicle: other): 115 % of control; T/C (dose: 50.0 mg/kg/injection, schedule: Q01DX009 (ip), vehicle: other): 108 % of control; T/C (dose: 100.0 mg/kg/injection, schedule: Q01DX009 (ip), vehicle: other): 102 % of control; T/C (dose: 200.0 mg/kg/injection, schedule: Q01DX009 (ip), vehicle: other): 108 % of control; T/C (dose: 400.0 mg/kg/injection, schedule: Q01DX009 (ip), vehicle: other): 96 % of control

Question: `CC1=C(OS(C)(=O)=O)CCC1=O` was tested. Which T/C (dose: 12.5 mg/kg/injection, schedule: Q01DX005 (ip), vehicle: saline with Tween-80) did it give?
Answer: 104 % of control

Question: And the T/C (dose: 25.0 mg/kg/injection, schedule: Q01DX005 (ip), vehicle: saline with Tween-80)?
Answer: 103 % of control

Question: What about the T/C [10] of the same molecule?
Answer: 103 % of control and 107 % of control

Question: What about the T/C [11] of the same molecule?
Answer: 106 % of control

Question: Which results are given for `NC(Cc1ccccc1)C(=O)NC(CCC(=O)O)C(=O)NC(CCC(=O)O)C(=O)O` (stereo not drawn) (H-Phe-Glu-Glu-OH; configuration not given here)?
Answer: T/C (dose: 50.0 mg/kg/injection, schedule: Q01DX005 (ip), vehicle: Klucel (hydroxypropylcellulose) (HPC)): 103 % of control; T/C (dose: 100.0 mg/kg/injection, schedule: Q01DX005 (ip), vehicle: Klucel (hydroxypropylcellulose) (HPC)): 100 % of control; T/C (dose: 200.0 mg/kg/injection, schedule: Q01DX005 (ip), vehicle: Klucel (hydroxypropylcellulose) (HPC)): 96 % of control

Question: For `CC(C)Cc1ncc(CC(C)C)n(O)c1=O`, which T/C (dose: 12.5 mg/kg/injection, schedule: Q01DX005 (ip), vehicle: distilled water + Tween-80) is on record?
Answer: 95 % of control

Question: And the T/C (dose: 25.0 mg/kg/injection, schedule: Q01DX005 (ip), vehicle: distilled water + Tween-80)?
Answer: 103 % of control

Question: And the T/C (dose: 50.0 mg/kg/injection, schedule: Q01DX005 (ip), vehicle: distilled water + Tween-80)?
Answer: 101 % of control

Question: What about the T/C (dose: 100.0 mg/kg/injection, schedule: Q01DX005 (ip), vehicle: distilled water + Tween-80) of the same molecule?
Answer: 100 % of control

Question: What does the source list for `COc1ccc2c(c1)N(C(=O)CN1CCN(C)CC1)c1ccccc1S2`?
Answer: T/C (dose: 25.0 mg/kg/injection, schedule: Q04DX002 (ip), vehicle: saline): 99 % of control; T/C (dose: 50.0 mg/kg/injection, schedule: Q04DX002 (ip), vehicle: saline): 102 % of control; T/C (dose: 100.0 mg/kg/injection, schedule: Q04DX002 (ip), vehicle: saline with Tween-80): 100 % of control; T/C (dose: 100.0 mg/kg/injection, schedule: Q04DX002 (ip), vehicle: saline): 99 % of control

Question: For `CCCN1CCc2cccc3c2C1Cc1ccc(O)c(O)c1-3` (stereo not drawn), which T/C [6] is on record?
Answer: 121 % of control

Question: What about the T/C [12] of the same molecule?
Answer: 113 % of control

Question: And the T/C [2]?
Answer: 109 % of control

Question: `O=C(CCl)Nc1nncs1` was tested. Which T/C (dose: 12.5 mg/kg/injection, schedule: Q01DX009 (ip), vehicle: distilled water + Tween-80) did it give?
Answer: 100 % of control

Question: What about the T/C (dose: 25.0 mg/kg/injection, schedule: Q01DX009 (ip), vehicle: distilled water + Tween-80) of the same molecule?
Answer: 104 % of control

Question: What about the T/C (dose: 50.0 mg/kg/injection, schedule: Q01DX009 (ip), vehicle: distilled water + Tween-80) of the same molecule?
Answer: 106 % of control

Question: What about the T/C (dose: 100.0 mg/kg/injection, schedule: Q01DX009 (ip), vehicle: distilled water + Tween-80) of the same molecule?
Answer: 104 % of control

Question: What about the T/C (dose: 200.0 mg/kg/injection, schedule: Q01DX009 (ip), vehicle: distilled water + Tween-80) of the same molecule?
Answer: 100 % of control

Question: `O=C(NC(C(=O)O)c1ccc(CCl)cc1)c1ccccc1` (stereo not drawn) was tested. Which T/C [10] did it give?
Answer: 107 % of control

Question: What about the T/C [11] of the same molecule?
Answer: 105 % of control

Question: For `CCCCC1(C2c3ccccc3Oc3ccccc32)C(=O)N(c2ccccc2)N(c2ccccc2)C1=O`, which T/C [13] is on record?
Answer: 98 % of control

Question: What about the T/C [14] of the same molecule?
Answer: 93 % of control

Question: And the T/C (dose: 240.0 mg/kg/injection, schedule: Q01DX005 (ip), vehicle: saline with Tween-80)?
Answer: 90 % of control

Question: Which results are given for `O=C(Nc1ccccc1-c1ccccc1)C(Cl)Cl`?
Answer: T/C [7]: 101 % of control; T/C [8]: 104 % of control; T/C [9]: 87 % of control; T/C (dose: 400.0 mg/kg/injection, schedule: Q01DX009 (ip), vehicle: Klucel (hydroxypropylcellulose) (HPC)): 100 % of control

Question: How did the T/C [13] turn out when `CC(C)CC(CO)Cc1nc2ccccc2[nH]1` (stereo not drawn) was run?
Answer: 114 % of control

Question: And the T/C [14]?
Answer: 105 % of control

Question: With `COc1cccc(C2SCC(=O)N2c2nncs2)c1OC` (stereo not drawn) as the molecule, how does the T/C [15] read?
Answer: 106 % of control

Question: And the T/C [16]?
Answer: 95 % of control

Question: What about the T/C [17] of the same molecule?
Answer: 98 % of control

Question: How did the T/C [15] turn out when `CN1C(=O)[C@@H]2N(N(C)C1=O)[C@@]1(Br)C(=O)N(C)C(=O)[C@@]21Br` was run?
Answer: 100 % of control

Question: What about the T/C [16] of the same molecule?
Answer: 105 % of control

Question: And the T/C [17]?
Answer: 101 % of control

Question: With `CCCCCCCCCCCCCC[N+]1([O-])CCCC1` as the molecule, how does the T/C [12] read?
Answer: 94 % of control

Question: What does the source list for `Cc1cc(C)c(SSc2nnnn2-c2ccccc2)c(C)c1`?
Answer: T/C [7]: 108 % of control; T/C [8]: 103 % of control; T/C [9]: 94 % of control

Question: For `O=C1CN(C(=O)Nc2ccc(Cl)c(Cl)c2)C(=S)N1`, which T/C (dose: 6.25 mg/kg/injection, schedule: Q01DX009 (ip), vehicle: Klucel (hydroxypropylcellulose) (HPC)) is on record?
Answer: 88 % of control

Question: What about the T/C (dose: 12.5 mg/kg/injection, schedule: Q01DX009 (ip), vehicle: Klucel (hydroxypropylcellulose) (HPC)) of the same molecule?
Answer: 101 % of control

Question: And the T/C (dose: 25.0 mg/kg/injection, schedule: Q01DX009 (ip), vehicle: Klucel (hydroxypropylcellulose) (HPC))?
Answer: 103 % of control and 90 % of control
